Test results published in ChEMBL document CHEMBL1132857, “Synthesis and binding studies of some epibatidine analogues” (Bioorg Med Chem Lett, 2000).

Assays:
[1] = biological target: T1, 5-hydroxytryptamine receptor 1A (Rattus norvegicus) (UniProt P19327); test: Inhibition of [3H]8-hydroxy-2-dipropylamino-1,2,3,4-tetrahydronaphthalene binding to 5-hydroxytryptamine 1A receptor in hippocampus region of rat brain; Less active; format: tissue-based
T1 sequence (whole entry): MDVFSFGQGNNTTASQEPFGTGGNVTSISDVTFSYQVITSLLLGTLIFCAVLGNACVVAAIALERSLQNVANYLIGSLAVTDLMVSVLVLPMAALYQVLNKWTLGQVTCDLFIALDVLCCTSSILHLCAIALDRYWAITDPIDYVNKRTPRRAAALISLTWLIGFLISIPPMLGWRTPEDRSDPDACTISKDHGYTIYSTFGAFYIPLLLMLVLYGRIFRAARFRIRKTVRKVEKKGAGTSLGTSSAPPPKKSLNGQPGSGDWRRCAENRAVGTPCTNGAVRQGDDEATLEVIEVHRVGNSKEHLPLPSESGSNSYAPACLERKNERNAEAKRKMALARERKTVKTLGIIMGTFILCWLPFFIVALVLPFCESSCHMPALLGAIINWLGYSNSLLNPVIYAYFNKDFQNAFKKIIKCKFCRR

[2] = biological target: T2, Muscarinic acetylcholine receptor M2 (Rattus norvegicus) (UniProt P10980); test: Inhibition of binding of [3H]quinuclidinyl benzilate to Muscarinic acetylcholine receptor M2 in rat heart atria at 10e-5 M of compound concentration; Less active
T2 sequence (whole entry): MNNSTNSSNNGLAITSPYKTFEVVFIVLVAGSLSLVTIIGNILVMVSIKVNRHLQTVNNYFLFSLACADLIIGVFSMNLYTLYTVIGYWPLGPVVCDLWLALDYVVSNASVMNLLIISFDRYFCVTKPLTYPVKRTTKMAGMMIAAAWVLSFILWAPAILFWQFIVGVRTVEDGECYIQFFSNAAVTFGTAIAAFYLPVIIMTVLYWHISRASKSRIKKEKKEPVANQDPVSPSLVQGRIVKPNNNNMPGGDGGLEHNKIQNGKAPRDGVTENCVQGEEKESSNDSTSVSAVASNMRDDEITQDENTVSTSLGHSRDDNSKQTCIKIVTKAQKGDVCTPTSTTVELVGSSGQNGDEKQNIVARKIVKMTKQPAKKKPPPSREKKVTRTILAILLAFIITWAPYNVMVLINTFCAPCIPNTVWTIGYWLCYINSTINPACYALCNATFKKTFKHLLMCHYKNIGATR

Rattus norvegicus [3] = species on record: Rattus norvegicus; test: Inhibition of binding of [3H]-nicotine to neural nicotinic cholinergic receptor in rat brain membranes at 10e-5 M of compound concentration; Less active; format: cell membranes
[4] = biological target: 5-hydroxytryptamine receptor 1B (Rattus norvegicus) (UniProt P28564); test: Inhibition of [3H]5-HT binding to 5-hydroxytryptamine 1B receptor in rat striatum; Less active; format: tissue-based
[5] = biological target: T3, Muscarinic acetylcholine receptor M1 (Rattus norvegicus) (UniProt P08482); test: Inhibition of binding of [3H]quinuclidinyl benzilate to Muscarinic acetylcholine receptor M1 in rat brain cortex at 10e-5 M of compound concentration; Less active; format: tissue-based
T3 sequence (whole entry): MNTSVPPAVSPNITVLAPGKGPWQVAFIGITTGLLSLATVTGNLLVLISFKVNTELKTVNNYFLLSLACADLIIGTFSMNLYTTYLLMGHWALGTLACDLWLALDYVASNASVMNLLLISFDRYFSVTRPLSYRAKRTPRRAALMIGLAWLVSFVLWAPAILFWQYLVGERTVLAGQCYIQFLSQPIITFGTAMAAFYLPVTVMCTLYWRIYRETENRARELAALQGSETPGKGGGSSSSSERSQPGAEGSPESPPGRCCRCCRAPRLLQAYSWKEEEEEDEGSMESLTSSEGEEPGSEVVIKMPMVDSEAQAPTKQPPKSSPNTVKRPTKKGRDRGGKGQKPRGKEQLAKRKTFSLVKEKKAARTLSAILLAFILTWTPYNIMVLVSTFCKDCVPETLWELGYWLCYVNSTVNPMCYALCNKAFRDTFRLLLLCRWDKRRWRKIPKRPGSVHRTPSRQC

[6] = biological target: T4, Muscarinic acetylcholine receptor M1 (Rattus norvegicus, UniProt P08482); format: tissue-based, Brain
T4 sequence (P08482 whole entry): T3 sequence (whole entry)

[7] = biological target: T5, Muscarinic acetylcholine receptor M2 (Rattus norvegicus, UniProt P10980)
T5 sequence (P10980 whole entry): T2 sequence (whole entry)

[8] = Inhibition of binding of [3H]nicotine to neural nicotinic cholinergic receptor in rat brain membranes at 10e-5 M of compound concentration; format: cell membranes
[9] = biological target: T5, Muscarinic acetylcholine receptor M2; test: Inhibition of binding of [3H]quinuclidinyl benzilate to Muscarinic acetylcholine receptor M2 in rat heart atria at 10e-5 M of compound concentration
Rattus norvegicus [10] = species on record: Rattus norvegicus; test: Inhibition of binding of [3H]nicotine to neural nicotinic cholinergic receptor in rat brain membranes at 10e-5 M of compound concentration; Less active; format: cell membranes
[11] = biological target: T4, Muscarinic acetylcholine receptor M1; test: Inhibition of binding of [3H]quinuclidinyl benzilate to Muscarinic acetylcholine receptor M1 in rat brain cortex at 10e-5 M of compound concentration; format: tissue-based
[12] = biological target: T4, Muscarinic acetylcholine receptor M1; test: Inhibition of binding of [3H]quinuclidinyl benzilate to Muscarinic acetylcholine receptor M1 in rat brain cortex at 10e-5 M of compound concentration; Residual radioligand binding higher than 80%; format: tissue-based
[13] = biological target: T2, Muscarinic acetylcholine receptor M2 (Rattus norvegicus); test: Inhibition of binding of [3H]quinuclidinyl benzilate to Muscarinic acetylcholine receptor M2 in rat heart atria at 10e-5 M of compound concentration. Less active

5-hydroxytryptamine receptor 1B (Rattus norvegicus), sequence (P28564 whole entry): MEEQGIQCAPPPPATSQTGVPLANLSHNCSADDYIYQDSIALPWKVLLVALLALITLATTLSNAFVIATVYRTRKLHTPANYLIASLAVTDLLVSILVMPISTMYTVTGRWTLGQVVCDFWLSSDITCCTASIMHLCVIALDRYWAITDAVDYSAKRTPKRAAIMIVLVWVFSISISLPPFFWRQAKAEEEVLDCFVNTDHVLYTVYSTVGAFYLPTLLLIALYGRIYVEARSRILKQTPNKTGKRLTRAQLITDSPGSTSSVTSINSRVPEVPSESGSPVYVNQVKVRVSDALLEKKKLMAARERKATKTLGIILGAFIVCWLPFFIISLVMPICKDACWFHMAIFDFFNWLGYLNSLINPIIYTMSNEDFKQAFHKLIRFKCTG

| Structure (SMILES) | Activity [1] | Activity [2] | Activity (Rattus norvegicus [3]) | Activity [4] | Activity [5] | IC50 [8] [nM] | further results |
| --- | --- | --- | --- | --- | --- | --- | --- |
| CN1C2CCC1CC(O)(c1ccc(Cl)nc1)C2 (stereo unspecified) | Weak activity | Weak activity | Weak activity | Weak activity | Weak activity | – | – |
| CCOC(=O)OC1(c2ccc(Cl)nc2)CCN(C)CC1 | Weak activity | Weak activity | Weak activity | Weak activity | Weak activity | – | – |
| CN1C2CCC1CC(O)(c1cccc(Cl)n1)C2 (stereo unspecified) | Weak activity | Weak activity | Weak activity | Weak activity | Weak activity | – | – |
| C[n+]1cccc(-c2ccc(Cl)nc2)c1.[I-] | – | – | – | – | – | 77 | IC50 [6]: Not Active; IC50 [7]: Not Active |
| CN1CCC=C(c2ccc(Cl)nc2)C1.O=C(O)/C=C\C(=O)O | – | – | – | – | – | 2.2 | IC50 [9]: 3510 nM; IC50 [6]: Not Active |
| Clc1ccc(-c2cccnc2)cn1 | Weak activity | Weak activity | – | Weak activity | Weak activity | – | Activity (Rattus norvegicus [10]): Weak activity |
| CN1C2C=C(c3ccc(Cl)nc3)CC1CC2 (stereo unspecified) | – | – | – | – | – | 1.8 | IC50 [9]: 4180 nM; IC50 [11]: 2140 nM |
| CN1CCC(O)(c2ccc(Cl)nc2)CC1 | Weak activity | Weak activity | Weak activity | Weak activity | Weak activity | – | – |
| Cl.Clc1cccc(C2=CC3CCC(C2)N3)n1 (stereo unspecified) | – | – | – | – | – | 212 | IC50 [12]: Not Active; IC50 [7]: Not Active |
| CCOC(=O)N1C2CCC1CC(O)(c1ccc(Cl)nc1)C2 (stereo unspecified) | Weak activity | Weak activity | Weak activity | Weak activity | Weak activity | – | – |
| CN1CC=C(c2ccc(Cl)nc2)CC1.Cl | – | – | – | – | – | 12.5 | IC50 [6]: Not Active; IC50 [7]: Not Active |
| CCOC(=O)N1C2CCC1CC(O)(c1ccc(Cl)cn1)C2 (stereo unspecified) | Weak activity | Weak activity | – | Weak activity | Weak activity | – | Activity (Rattus norvegicus [10]): Weak activity |
| Clc1ccc(C2=CC3CCC(C2)N3)cn1.O=C(O)/C=C\C(=O)O (stereo unspecified) | – | – | – | – | – | 1.7 | IC50 [12]: Not Active; IC50 [7]: Not Active |
| CCOC(=O)N1C2CCC1CC(O)(c1cccc(Cl)n1)C2 (stereo unspecified) | Weak activity | Weak activity | – | Weak activity | Weak activity | – | Activity (Rattus norvegicus [10]): Weak activity |
| CN1C2C=C(c3cccc(Cl)n3)CC1CC2.O=C(O)/C=C\C(=O)O (stereo unspecified) | – | – | – | – | – | 264 | IC50 [7]: Not Active; IC50 [11]: 1850 nM |
| CN1C2C=C(c3ccc(Cl)cn3)CC1CC2 (stereo unspecified) | Weak activity | Weak activity | Weak activity | Weak activity | Weak activity | – | – |
| CN1C2CCC1CC(O)(c1ccc(Cl)cn1)C2 (stereo unspecified) | Weak activity | – | – | Weak activity | Weak activity | – | Activity [13]: Weak activity; Activity (Rattus norvegicus [10]): Weak activity |
